According to patent US5367077A (priority 1992, dated 1994):

These molecules were tested against GABAa receptor (assay: GABAa receptor binding assay: displacement of [3H]-Flumazenil (RO15-1788) from rat cortical tissue). Details: rat cortical tissue homogenate, 0.5 nM 3H-RO15-1788, 30 min at 4° C., pH 7.4.
Description: The pharmaceutical utility of compounds of this invention are indicated by the following assay for GABAa receptor activity.
Assays are carried out as described in Thomas and Tallman (J. Bio. Chem. 156: 9838-9842 , J. Neurosci. 3: 433-440, 1983). Rat cortical tissue is dissected and homogenized in 25 volumes (w/v) of 0.05M Tris HCl buffer (pH 7.4 at 4° C.). The tissue homogenate is centrifuged in the cold (4° ) at 20,000×g for 20'. The supernatant is decanted and the pellet is rehomogenized in the same volume of buffer and again centrifuged at 20,000×g. The supernatant is decanted and the pellet is frozen at -20° C. overnight. The pellet is then thawed and rehomogenized in 25 volume (original wt/vol) of buffer and the procedure is carried out twice. The pellet is finally resuspended in 50 volumes (w/vol of 0.05M Tris HCI buffer (pH 7.4 at […]).
Incubations contain 100 μl of tissue homogenate, 100 μl of radioligand 0.5nM (^3 H-RO15-1788 [^3 H-Flumazenil] specific activity 80 Ci/mmol), drug or blocker and buffer to a total volume of 500 μl. Incubations are carried for 30 min at 4° C. then are rapidly filtered through GFB filters to separate free and bound ligand. Filters are washed twice with fresh 0.05M Tris HCI buffer (pH 7.4 at 4° C.) and counted in a liquid scintillation counter. 1.0 μM diazepam is added to some tubes to determine nonspecific binding. Data are collected in triplicate determinations. averaged and % inhibition of total specific binding is calculated. Total Specific Binding=Total-Nonspecific. In some cases, the amounts of unlabeled drugs is varied and total displacement curves of binding are carried out. Data are converted to a form for the calculation of IC50 and Hill Coefficient (nH).

SMILES	IC50 [nM]
Fc1ccccc1-c1cc2c3c([nH]c2cn1)CCCC3 [Compound 2]	550
COc1cccc(-c2cc3c4c([nH]c3cn2)CCC2(C4)OCCO2)c1 [Compound 18, 2'-(3-Methoxyphenyl)-5',6',7',9'-tetrahydro-spiro[(1,3)dioxolane-2,8'-5H-indolo[3,4-b]pyridine]]	120
Fc1ccccc1-c1cc2c3c([nH]c2cn1)CCN(Cc1ccccc1)C3 [Compound 20, 8-Benzyl-2-(2-fluorophenyl)-5,6,7,9-tetrahydro-5H-pyrido[4,3-b]pyrido[4,3-d]-pyrrole]	130
COc1cccc(-c2cc3c4c([nH]c3cn2)CCN(Cc2ccccc2)C4)c1 [Compound 24, 8-Benzyl-2-(3-methoxyphenyl)-5,6,7,9-tetrahydro-5H-pyrido[4,3-b]pyrido[4,3-d]-pyrrole]	240
